Measurements as given in the supplement of paper PMC10307832.

Experiments:
Assay in all cases: relative viability (nuclei count vs DMSO), 5 days (fraction); higher = more cells survive
201T = test system: 201T
Procedure, shortened: (§1)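 A single step with final 0.05% Triton X-100, 1% formaldehyde and 1 ug/ml Hoechst fixed the cells and stained nuclei 5 days after treatment. Lung cancer cell lines in 1536-well plates had been treated by pin tool the day after seeding with one drug alone or a fixed anchor-drug dose plus five library-drug doses (not always all listed) in √10 steps, and nuclei were counted on 4× images. Relative viability is the ratio of nuclei in treated wells to nuclei in vehicle wells, taken as the median of duplicate plates.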

BEN = test system: BEN
Procedure, shortened: as §1

HCC-366 = test system: HCC-366
Procedure, shortened: as §1

HCC-44 = test system: HCC-44
Procedure, shortened: as §1

HCC-78 = test system: HCC-78
Procedure, shortened: as §1

LOU-NH91 = test system: LOU-NH91
Procedure, shortened: as §1

LU99A = test system: LU99A
Procedure, shortened: as §1

NCI-H1355 = test system: NCI-H1355
Procedure, shortened: as §1

NCI-H1395 = test system: NCI-H1395
Procedure, shortened: as §1

NCI-H1734 = test system: NCI-H1734
Procedure, shortened: as §1

NCI-H1975 = test system: NCI-H1975
Procedure, shortened: as §1

NCI-H2085 = test system: NCI-H2085
Procedure, shortened: as §1

NCI-H2087 = test system: NCI-H2087
Procedure, shortened: as §1

NCI-H2126 = test system: NCI-H2126
Procedure, shortened: as §1

NCI-H2228 = test system: NCI-H2228
Procedure, shortened: as §1

NCI-H322M = test system: NCI-H322M
Procedure, shortened: as §1

NCI-H358 = test system: NCI-H358
Procedure, shortened: as §1

NCI-H647 = test system: NCI-H647
Procedure, shortened: as §1

NCI-H727 = test system: NCI-H727
Procedure, shortened: as §1

PC-14 = test system: PC-14
Procedure, shortened: as §1

SK-LU-1 = test system: SK-LU-1
Procedure, shortened: as §1

SK-MES-1 = test system: SK-MES-1
Procedure, shortened: as §1

UMC-11 = test system: UMC-11
Procedure, shortened: as §1

In the case of `Oc1nc(-c2ccc(C(F)(F)F)cc2)nc2c1CSCC2` [XAV939] + O=C(CCCCCCC(=O)Nc1ccccc1)NO [Vorinostat] (partner 1 µM), the relative viability (201T; first compound 0.08 µM) is reported as 1.07, the relative viability (201T; first compound 0.253 µM) is reported as 0.794 and the relative viability (201T; first compound 0.8 µM) is reported as 0.832. For the same molecule, the relative viability (201T; first compound 2.53 µM) was 0.779, the relative viability (BEN; first compound 0.08 µM) was 0.556 and the relative viability (BEN; first compound 0.253 µM) was 0.587. The relative viability (BEN; first compound 0.8 µM) was 0.514, the relative viability (BEN; first compound 2.53 µM) was 0.418 and the relative viability (HCC-366; first compound 0.08 µM) was 0.398. For the same molecule, the relative viability (HCC-366; first compound 0.253 µM) was 0.25, the relative viability (HCC-366; first compound 0.8 µM) was 0.293 and the relative viability (HCC-366; first compound 2.53 µM) was 0.189. It also gave a relative viability (HCC-44; first compound 0.08 µM) of 0.981, a relative viability (HCC-44; first compound 0.253 µM) of 0.919 and a relative viability (HCC-44; first compound 0.8 µM) of 0.947. It also gave a relative viability (HCC-44; first compound 2.53 µM) of 1.04, a relative viability (HCC-78; first compound 0.08 µM) of 0.526 and a relative viability (HCC-78; first compound 0.253 µM) of 0.453. For the same molecule, the relative viability (HCC-78; first compound 0.8 µM) was 0.443, the relative viability (HCC-78; first compound 2.53 µM) was 0.415 and the relative viability (LOU-NH91; first compound 0.08 µM) was 0.952. The relative viability (LOU-NH91; first compound 0.253 µM) was 0.813, the relative viability (LOU-NH91; first compound 0.8 µM) was 0.88 and the relative viability (LOU-NH91; first compound 2.53 µM) was 0.937. The relative viability (LU99A; first compound 0.08 µM) was 0.454, the relative viability (LU99A; first compound 0.253 µM) was 0.598 and the relative viability (LU99A; first compound 0.8 µM) was 0.507. The relative viability (LU99A; first compound 2.53 µM) was 0.43, the relative viability (NCI-H1355; first compound 0.08 µM) was 0.688 and the relative viability (NCI-H1355; first compound 0.253 µM) was 0.546. The relative viability (NCI-H1355; first compound 0.8 µM) was 0.552, the relative viability (NCI-H1355; first compound 2.53 µM) was 0.445 and the relative viability (NCI-H1395; first compound 0.08 µM) was 0.746. It also gave a relative viability (NCI-H1395; first compound 0.253 µM) of 0.774, a relative viability (NCI-H1395; first compound 0.8 µM) of 0.725 and a relative viability (NCI-H1395; first compound 2.53 µM) of 0.849. For the same molecule, the relative viability (NCI-H1734; first compound 0.08 µM) was 0.98, the relative viability (NCI-H1734; first compound 0.253 µM) was 0.835 and the relative viability (NCI-H1734; first compound 0.8 µM) was 0.757. For the same molecule, the relative viability (NCI-H1734; first compound 2.53 µM) was 0.803, the relative viability (NCI-H1975; first compound 0.08 µM) was 0.784 and the relative viability (NCI-H1975; first compound 0.253 µM) was 0.588. It also gave a relative viability (NCI-H1975; first compound 0.8 µM) of 0.673, a relative viability (NCI-H1975; first compound 2.53 µM) of 0.667 and a relative viability (NCI-H2085; first compound 0.08 µM) of 0.741. The relative viability (NCI-H2085; first compound 0.253 µM) was 0.736, the relative viability (NCI-H2085; first compound 0.8 µM) was 0.789 and the relative viability (NCI-H2085; first compound 2.53 µM) was 0.716. It also gave a relative viability (NCI-H2087; first compound 0.08 µM) of 0.978, a relative viability (NCI-H2087; first compound 0.253 µM) of 0.561 and a relative viability (NCI-H2087; first compound 0.8 µM) of 0.654. It also gave a relative viability (NCI-H2087; first compound 2.53 µM) of 0.594, a relative viability (NCI-H2126; first compound 0.08 µM) of 0.835 and a relative viability (NCI-H2126; first compound 0.253 µM) of 0.587. It also gave a relative viability (NCI-H2126; first compound 0.8 µM) of 0.733, a relative viability (NCI-H2126; first compound 2.53 µM) of 0.564 and a relative viability (NCI-H2228; first compound 0.08 µM) of 0.639. For the same molecule, the relative viability (NCI-H2228; first compound 0.253 µM) was 0.589, the relative viability (NCI-H2228; first compound 0.8 µM) was 0.775 and the relative viability (NCI-H2228; first compound 2.53 µM) was 0.597. The relative viability (NCI-H322M; first compound 0.08 µM) was 1.1, the relative viability (NCI-H322M; first compound 0.253 µM) was 0.805 and the relative viability (NCI-H322M; first compound 0.8 µM) was 0.826. For the same molecule, the relative viability (NCI-H322M; first compound 2.53 µM) was 0.622, the relative viability (NCI-H358; first compound 0.08 µM) was 0.796 and the relative viability (NCI-H358; first compound 0.253 µM) was 0.49. The relative viability (NCI-H358; first compound 0.8 µM) was 0.658, the relative viability (NCI-H358; first compound 2.53 µM) was 0.565 and the relative viability (NCI-H647; first compound 0.08 µM) was 0.581. For the same molecule, the relative viability (NCI-H647; first compound 0.253 µM) was 0.545, the relative viability (NCI-H647; first compound 0.8 µM) was 0.496 and the relative viability (NCI-H647; first compound 2.53 µM) was 0.207. For the same molecule, the relative viability (NCI-H727; first compound 0.08 µM) was 1.25, the relative viability (NCI-H727; first compound 0.8 µM) was 1 and the relative viability (NCI-H727; first compound 2.53 µM) was 1.02. It also gave a relative viability (PC-14; first compound 0.08 µM) of 0.96, a relative viability (PC-14; first compound 0.253 µM) of 0.622 and a relative viability (PC-14; first compound 0.8 µM) of 0.789. The relative viability (PC-14; first compound 2.53 µM) was 0.598, the relative viability (SK-LU-1; first compound 0.08 µM) was 0.872 and the relative viability (SK-LU-1; first compound 0.253 µM) was 0.755. It also gave a relative viability (SK-LU-1; first compound 0.8 µM) of 0.892, a relative viability (SK-LU-1; first compound 2.53 µM) of 0.87 and a relative viability (SK-MES-1; first compound 0.08 µM) of 1.1. The relative viability (SK-MES-1; first compound 0.253 µM) was 0.954, the relative viability (SK-MES-1; first compound 0.8 µM) was 0.92 and the relative viability (SK-MES-1; first compound 2.53 µM) was 0.831. It also gave a relative viability (UMC-11; first compound 0.08 µM) of 0.364, a relative viability (UMC-11; first compound 0.253 µM) of 0.267 and a relative viability (UMC-11; first compound 0.8 µM) of 0.305. It also gave a relative viability (UMC-11; first compound 2.53 µM) of 0.274.
